Measurements reported in US20060128634A1, “Alpha, alpha-disubstituted benzylglycine derivatives as HIV protease inhibitors” (priority 2002, published 2006).
Converted amounts (≈) assume the structure as drawn.

Tested on: HIV-1 (RF)
Assay: HIV RNA assay: microplate based compound evaluation in HIV-1 infected MT-2 cells
Type: cell-based
Conditions: Human immunodeficiency virus 1, MT2; HIV-1 (RF) infected MT-2 cells; value used to standardize the virus inoculum; read-out: IC90 (concentration of compound required to reduce the HIV RNA level by 90%)
Experimental: Plasmid pDAB 72 containing both gag and pol sequences of BH10 (bp 113-1816) cloned into PTZ 19R was prepared according to Erickson-Vitanen et al. AIDS Research and Human Retroviruses 1989, 5, 577. The plasmid was linearized with Bam HI prior to the generation of in vitro RNA transcripts using the Riboprobe Gemini system II kit (Promega) with T7 RNA polymerase. Synthesized RNA was purified by treatment with RNase free DNAse (Promega), phenol-chloroform extraction, and ethanol precipitation. RNA transcripts were dissolved in water, and stored at −70EC. The concentration of RNA was determined from the A260.
Biotinylated capture probes were purified by HPLC after synthesis on an Applied Biosystems (Foster city, Calif.) DNA synthesizer by addition of biotin to the 5N terminal end of the oligonucleotide, using the biotin-phosphoramidite reagent of Cocuzza, Tet. Lett. 1989, 30, 6287. […]
MT-2 and MT-4 cells were maintained in RPMI 1640 supplemented with 5% fetal calf serum (FCS) for MT-2 cells or 10% FCS for MT-4 cells, 2 mM L-glutamine and 50 μg/mL gentamycin, all from Gibco. […] Infectious titers of HIV-1(RF) stocks were 1-3×10^7 PFU (plaque forming units)/mL as measured by plaque assay on MT-2 cells (see below). […]

IC90: 0.2 µg/mL (≈ 0.947 µM)
SMILES: Nc1ccn([C@H]2CC[C@@H](CO)O2)c(=O)n1 [ddC, dideoxycytidine]
